Source: paper PMC9688344, “[^225Ac]Ac-SibuDAB for Targeted Alpha Therapy of Prostate Cancer: Preclinical Evaluation and Comparison with [^225Ac]Ac-PSMA-617” (Cancers, 2022)

Tests used:
[1] = test system: patients; parameters: method as in PMID 33293081; conditions: clinical study; cited from earlier work
[2] = test system: PSMA-negative PC-3 flu tumors; assay: Therapy study in PC-3 flu tumor-bearing mice; assay type: in vivo, BALB/c nude mice; conditions: 30 kBq
Description: Five days after subcutaneous inoculation of four groups of mice with either PC-3 PIP or PC-3 flu tumor cells on the right shoulder (4 × 10^6 cells in 100 μL HBSS), the mice were intravenously injected with either vehicle only (saline with 0.05% BSA, n = 6 and n = 4, respectively) or with 30 kBq [^225Ac]Ac-SibuDAB (1 nmol per mouse; n = 4 per group) diluted in vehicle (Table 1).
After administration of the radioligands, the mice were monitored over 8 weeks using the same measures as previously published by Umbricht et al.. The relative body mass was defined as [BMx/BM0], where BMx is the body mass in grams at a given Day x and BM0 is the body mass in grams at Day 0. The tumor dimension was determined by measuring the longest tumor axis (L) and its perpendicular axis (W) with a digital caliper. The tumor volume (V) was calculated according to the equation [V = 0.5 × (LW^2)]. The relative tumor volume was defined as [TVx/TV0], where TVx is the tumor volume in mm^3 at a given Day x, and TV0 is the tumor volume in mm^3 at Day 0. Endpoint criteria that required euthanasia were defined as (i) body mass loss of >15%, (ii) a tumor volume of >800 mm^3, (iii) a combination of body mass loss of >10% and a tumor volume of >700 mm^3 or, (iv) signs of unease and pain or a combination thereof using a scoring system as previously reported. The median survival of mice of each group was assessed with Kaplan–Meier curves. Potential early side effects for mice that survived until study end were determined based on blood chemistry and organ-to-brain mass ratios on Day 56 by comparison to values obtained from an additional group of therapy-naïve mice (n = 4) without tumors but of the same age (Supplementary Material: Section S9).

[3] = test system: human serum albumin; assay: Albumin binding, ultrafiltration assay in human blood plasma; assay type: in vitro ADME
Description: The logD values, cell uptake and internalization as well as PSMA-binding affinities (KD values) of [^225Ac]Ac-SibuDAB and [^225Ac]Ac-PSMA-617 (~50 kBq/nmol) were determined according to previously reported protocols (Supplementary Material: Sections S3–S5). Relative albumin-binding affinities were determined using an ultrafiltration assay according to an adapted version of a recently published protocol (Supplementary Material: Section S6).
Table S1. PSMA-binding affinity expressed as KD values determined for SibuDAB and PSMA-617 labeled with actinium-225 or lutetium-177.
Radioligand KD Value [nM] 95% Confidence interval n […]
Purpose: The affinity of [225Ac]Ac-SibuDAB to serum albumin in mouse and human blood plasma was assessed and compared to that of [177Lu]Lu-SibuDAB to determine the impact of the radionuclide on the albumin-binding properties of SibuDAB.
Methods: Relative albumin-binding affinities were determined using an ultrafiltra-tion assay according to a slightly adapted version of a published protocol. The concen-tration of mouse serum albumin (MSA) and human serum albumin (HSA) in samples of mouse and human plasma, respectively, was determined using a DRI-CHEM Analyzer (FUJIFILM, 4000i). […] The activity in the retained protein fraction (A bound), in the filtrate (Afiltrate) and in the filter unit (Afilter) were measured separately in a γ-counter (Perkin Elmer Wallac Wizard 1480). […]

| SMILES | patients with hematotoxicity up to Grade 3/4 [1] | Day of first endpoint [2] | Day of last endpoint [2] | Median Survival [2] [days] | Number of Mice Alive on Day 56 [2] | Tumor growth delay [2] | relative albumin-binding affinity, higher than for [177Lu]Lu-SibuDAB [3] [fold] |
| --- | --- | --- | --- | --- | --- | --- | --- |
| O=C([O-])CN1CCN(CC(=O)[O-])CCN(CC(=O)NCC2CCC(C(=O)NC(Cc3ccc4ccccc4c3)C(=O)NCCCCC(NC(=O)NC(CCC(=O)O)C(=O)O)C(=O)O)CC2)CCN(CC(=O)[O-])CC1.[225Ac+3] (stereo not shown) [[^225Ac]Ac-PSMA-617] | about 30% |  |  |  |  |  |  |
| CC(C)Cc1ccc(C(C)C(=O)NC(CCN)C(=O)NCCCCC(NC(=O)CN2CCN(CC(=O)[O-])CCN(CC(=O)[O-])CCN(CC(=O)[O-])CC2)C(=O)NCC2CCC(C(=O)NC(Cc3ccc4ccccc4c3)C(=O)NCCCCC(NC(=O)NC(CCC(=O)O)C(=O)O)C(=O)O)CC2)cc1.[225Ac+3] (stereo not shown) [[^225Ac]Ac-SibuDAB] |  | 18 | 27 | 25 | 0/4 | not significantly delay the growth | 1.4 |
